# According to PubChem BioAssay AID256 (DTP/NCI, 2004):
# Values joined by “and” are separate entries in the source; they are usually repeats but may differ in a detail not shown here. Identical values can stand only once. Toxic doses and inconclusive results are not listed.
# Tested on: CD2F1 mice, L1210 leukemia ip, survival T/C
# Assay: NCI In Vivo Anticancer Drug Screen. Data for tumor model L1210 Leukemia (intraperitoneal) in CD2F1 (CDF1) mice
# Details: higher = longer survival
# Summary of the method: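 Transplantable tumor in mice; compound-treated vs vehicle-treated groups. Read-out = treated/control ratio of the measured endpoint.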
# [1] = endpoint: mean survival time, dose: 100.0 mg/kg/injection, schedule: Q01DX001 (ip), vehicle: saline with Tween-80
# [2] = endpoint: mean survival time, dose: 100.0 mg/kg/injection, schedule: Q04DX003 (ip), vehicle: saline with Tween-80
# [3] = endpoint: mean survival time, dose: 200.0 mg/kg/injection, schedule: Q04DX003 (ip), vehicle: saline with Tween-80
# [4] = endpoint: mean survival time, dose: 400.0 mg/kg/injection, schedule: Q04DX003 (ip), vehicle: saline with Tween-80
# [5] = endpoint: mean survival time, dose: 25.0 mg/kg/injection, schedule: Q01DX009 (ip), vehicle: saline
# [6] = endpoint: mean survival time, dose: 50.0 mg/kg/injection, schedule: Q01DX009 (ip), vehicle: saline
# [7] = endpoint: mean survival time, dose: 100.0 mg/kg/injection, schedule: Q01DX009 (ip), vehicle: saline with Tween-80
# [8] = endpoint: mean survival time, dose: 200.0 mg/kg/injection, schedule: Q01DX009 (ip), vehicle: saline with Tween-80
# [9] = endpoint: mean survival time, dose: 100.0 mg/kg/injection, schedule: Q01DX009 (ip), vehicle: saline
smiles,measurement,setting,value
Cc1ccc(C(C)C)c(OCC[N+]2(CCOc3cc(C)ccc3C(C)C)CC=CC2)c1,T/C,"endpoint: mean survival time, dose: 6.25 mg/kg/injection, schedule: Q04DX002 (ip), vehicle: saline with Tween-80",100 % of control
same,T/C,"endpoint: mean survival time, dose: 12.5 mg/kg/injection, schedule: Q04DX002 (ip), vehicle: saline with Tween-80",94 % of control
same,T/C,"endpoint: mean survival time, dose: 25.0 mg/kg/injection, schedule: Q04DX002 (ip), vehicle: saline with Tween-80",100 % of control
Cc1cc(Br)ccc1C(=O)O,T/C,[1],94 % of control
same,T/C,"endpoint: mean survival time, dose: 200.0 mg/kg/injection, schedule: Q01DX001 (ip), vehicle: saline with Tween-80",91 % of control
same,T/C,"endpoint: mean survival time, dose: 400.0 mg/kg/injection, schedule: Q01DX001 (ip), vehicle: saline with Tween-80",102 % of control
O=C(Nc1ccccc1)Nc1nnnc2ccccc12,T/C,[2],101 % of control
same,T/C,[3],90 % of control
same,T/C,[4],101 % of control
O=c1[nH]c2c(ccc3cnccc32)c2c1CCC2,T/C,"endpoint: mean survival time, dose: 3.12 mg/kg/injection, schedule: Q01DX009 (ip), vehicle: saline",107 % of control
same,T/C,"endpoint: mean survival time, dose: 6.25 mg/kg/injection, schedule: Q01DX009 (ip), vehicle: saline",100 % of control and 110 % of control
same,T/C,"endpoint: mean survival time, dose: 12.5 mg/kg/injection, schedule: Q01DX009 (ip), vehicle: saline",96 % of control and 107 % of control
same,T/C,[5],119 % of control and 111 % of control
same,T/C,[6],88 % of control and 96 % of control
Oc1c(F)c(F)c(-c2c(F)ccc(F)c2F)c(F)c1F,T/C,"endpoint: mean survival time, dose: 25.0 mg/kg/injection, schedule: Q01DX001 (ip), vehicle: saline with Tween-80",92 % of control
same,T/C,"endpoint: mean survival time, dose: 50.0 mg/kg/injection, schedule: Q01DX001 (ip), vehicle: saline with Tween-80",102 % of control
same,T/C,[1],94 % of control
[Cl][Pt+2][Cl].[NH-]C1C(O)OC(CO)C(O)C1O.[NH-]C1C(O)OC(CO)C(O)C1O (stereo unspecified),T/C,"endpoint: median survival time, dose: 2.5 mg/kg/injection, schedule: Q04DX003 (ip), vehicle: saline",105 % of control
same,T/C,"endpoint: median survival time, dose: 5.0 mg/kg/injection, schedule: Q04DX003 (ip), vehicle: saline",110 % of control
same,T/C,"endpoint: median survival time, dose: 10.0 mg/kg/injection, schedule: Q04DX003 (ip), vehicle: saline",93 % of control
same,T/C,"endpoint: median survival time, dose: 20.0 mg/kg/injection, schedule: Q04DX003 (ip), vehicle: saline",100 % of control
same,T/C,"endpoint: median survival time, dose: 25.0 mg/kg/injection, schedule: Q04DX003 (ip), vehicle: saline",103 % of control
same,T/C,"endpoint: median survival time, dose: 50.0 mg/kg/injection, schedule: Q04DX003 (ip), vehicle: saline",105 % of control
same,T/C,"endpoint: median survival time, dose: 100.0 mg/kg/injection, schedule: Q04DX003 (ip), vehicle: saline",103 % of control
same,T/C,"endpoint: median survival time, dose: 200.0 mg/kg/injection, schedule: Q04DX003 (ip), vehicle: saline",101 % of control
ClC1=NC(Cl)C(Cl)=N/C1=N\c1ncn[nH]1 (stereo unspecified),T/C,"endpoint: mean survival time, dose: 25.0 mg/kg/injection, schedule: Q04DX003 (ip), vehicle: saline with Tween-80",96 % of control
same,T/C,"endpoint: mean survival time, dose: 50.0 mg/kg/injection, schedule: Q04DX003 (ip), vehicle: saline with Tween-80",95 % of control
same,T/C,"endpoint: mean survival time, dose: 100.0 mg/kg/injection, schedule: Q04DX003 (ip), vehicle: saline sonified",93 % of control
c1ccc2c(NCCCCCCNc3c4ccccc4nc4ccccc34)c3ccccc3nc2c1,T/C,"endpoint: mean survival time, dose: 0.62 mg/kg/injection, schedule: Q01DX009 (ip), vehicle: Klucel (hydroxypropylcellulose) (HPC)",103 % of control
same,T/C,"endpoint: mean survival time, dose: 1.25 mg/kg/injection, schedule: Q01DX009 (ip), vehicle: Klucel (hydroxypropylcellulose) (HPC)",114 % of control and 123 % of control and 111 % of control
same,T/C,"endpoint: mean survival time, dose: 2.5 mg/kg/injection, schedule: Q01DX009 (ip), vehicle: Klucel (hydroxypropylcellulose) (HPC)",115 % of control and 109 % of control
same,T/C,"endpoint: mean survival time, dose: 5.0 mg/kg/injection, schedule: Q01DX009 (ip), vehicle: Klucel (hydroxypropylcellulose) (HPC)",123 % of control and 111 % of control
same,T/C,"endpoint: mean survival time, dose: 10.0 mg/kg/injection, schedule: Q01DX009 (ip), vehicle: Klucel (hydroxypropylcellulose) (HPC)",111 % of control
same,T/C,"endpoint: mean survival time, dose: 20.0 mg/kg/injection, schedule: Q01DX009 (ip), vehicle: Klucel (hydroxypropylcellulose) (HPC)",104 % of control
c1ccc2c(c1)nnn1c3ncccc3nc21,T/C,"endpoint: mean survival time, dose: 75.0 mg/kg/injection, schedule: Q01DX001 (ip), vehicle: saline",98 % of control
same,T/C,"endpoint: mean survival time, dose: 150.0 mg/kg/injection, schedule: Q01DX001 (ip), vehicle: saline",92 % of control
same,T/C,"endpoint: mean survival time, dose: 300.0 mg/kg/injection, schedule: Q01DX001 (ip), vehicle: saline",93 % of control
C#CCNC1=C(C)C(=O)C2=C(C1=O)[C@H](COC(N)=O)[C@]1(O)[C@H]3[C@@H](CN21)N3C (stereo partly specified),T/C,"endpoint: mean survival time, dose: 1.5 mg/kg/injection, schedule: Q01DX001 (ip), vehicle: water",104 % of control
same,T/C,"endpoint: mean survival time, dose: 3.0 mg/kg/injection, schedule: Q01DX001 (ip), vehicle: water",102 % of control
same,T/C,"endpoint: mean survival time, dose: 6.0 mg/kg/injection, schedule: Q01DX001 (ip), vehicle: water",100 % of control
same,T/C,"endpoint: mean survival time, dose: 12.0 mg/kg/injection, schedule: Q01DX001 (ip), vehicle: water",110 % of control
same,T/C,"endpoint: mean survival time, dose: 24.0 mg/kg/injection, schedule: Q01DX001 (ip), vehicle: water",110 % of control
CC(=O)CC(C)=Nc1ccc([N+](=O)[O-])cc1,T/C,[7],90 % of control
same,T/C,[8],93 % of control
same,T/C,"endpoint: mean survival time, dose: 400.0 mg/kg/injection, schedule: Q01DX009 (ip), vehicle: saline with Tween-80",90 % of control
CN(CC(=O)O)C(=S)c1ccccc1,T/C,[2],98 % of control
same,T/C,[3],104 % of control
same,T/C,[4],95 % of control
Nc1nc([Se]Cc2ccc([N+](=O)[O-])cc2)c2ncn(C3OC(CO)C(O)C3O)c2n1 (stereo unspecified),T/C,[5],111 % of control
same,T/C,[6],119 % of control
same,T/C,[9],100 % of control
N#CCCn1ccc2ccccc21,T/C,"endpoint: mean survival time, dose: 100.0 mg/kg/injection, schedule: Q01DX009 (ip), vehicle: other",98 % of control
same,T/C,"endpoint: mean survival time, dose: 200.0 mg/kg/injection, schedule: Q01DX009 (ip), vehicle: other",104 % of control
same,T/C,"endpoint: mean survival time, dose: 400.0 mg/kg/injection, schedule: Q01DX009 (ip), vehicle: other",98 % of control
COC1OC(CO)C(O)C(OC)C1OC (stereo unspecified) (tested in a mixture with another compound),T/C,"endpoint: mean survival time, dose: 100.0 mg/kg/injection, schedule: Q01DX001 (ip), vehicle: saline",100 % of control
same,T/C,"endpoint: mean survival time, dose: 200.0 mg/kg/injection, schedule: Q01DX001 (ip), vehicle: saline",100 % of control
same,T/C,"endpoint: mean survival time, dose: 400.0 mg/kg/injection, schedule: Q01DX001 (ip), vehicle: saline",100 % of control
CCOc1ccc(C(C)c2cc3c(cc2OC)OCO3)cc1 (stereo unspecified),T/C,"endpoint: median survival time, dose: 25.0 mg/kg/injection, schedule: Q01DX009 (ip), vehicle: distilled water + Tween-80",104 % of control
same,T/C,"endpoint: median survival time, dose: 25.0 mg/kg/injection, schedule: Q01DX009 (ip), vehicle: saline with Tween-80",117 % of control
same,T/C,"endpoint: median survival time, dose: 50.0 mg/kg/injection, schedule: Q01DX009 (ip), vehicle: distilled water + Tween-80",104 % of control
same,T/C,"endpoint: median survival time, dose: 50.0 mg/kg/injection, schedule: Q01DX009 (ip), vehicle: saline with Tween-80",109 % of control
same,T/C,"endpoint: median survival time, dose: 100.0 mg/kg/injection, schedule: Q01DX009 (ip), vehicle: distilled water + Tween-80",109 % of control
same,T/C,"endpoint: median survival time, dose: 100.0 mg/kg/injection, schedule: Q01DX009 (ip), vehicle: saline with Tween-80",110 % of control
same,T/C,"endpoint: median survival time, dose: 200.0 mg/kg/injection, schedule: Q01DX009 (ip), vehicle: distilled water + Tween-80",124 % of control
same,T/C,"endpoint: median survival time, dose: 200.0 mg/kg/injection, schedule: Q01DX009 (ip), vehicle: saline with Tween-80",150 % of control
Cn1c(=O)c2[nH]c(NCc3ccccc3)nc2n(C)c1=O,T/C,"endpoint: mean survival time, dose: 12.5 mg/kg/injection, schedule: Q01DX005 (ip), vehicle: distilled water + Tween-80",93 % of control
same,T/C,"endpoint: mean survival time, dose: 25.0 mg/kg/injection, schedule: Q01DX005 (ip), vehicle: distilled water + Tween-80",90 % of control
same,T/C,"endpoint: mean survival time, dose: 50.0 mg/kg/injection, schedule: Q01DX005 (ip), vehicle: distilled water + Tween-80",90 % of control
same,T/C,"endpoint: mean survival time, dose: 100.0 mg/kg/injection, schedule: Q01DX005 (ip), vehicle: distilled water + Tween-80",94 % of control
same,T/C,"endpoint: mean survival time, dose: 200.0 mg/kg/injection, schedule: Q01DX005 (ip), vehicle: distilled water + Tween-80",90 % of control
N#CC12C(=N)CCC1C1CC2C2C3C=CC(C3)C12 (stereo unspecified),T/C,[2],96 % of control
same,T/C,[3],96 % of control
same,T/C,[4],95 % of control
CC1(C)Cc2ccccc2O1,T/C,[7],104 % of control
same,T/C,[8],91 % of control
CCOC(=O)CCN(CC)CC,T/C,[9],106 % of control
same,T/C,"endpoint: mean survival time, dose: 200.0 mg/kg/injection, schedule: Q01DX009 (ip), vehicle: saline",97 % of control
same,T/C,"endpoint: mean survival time, dose: 400.0 mg/kg/injection, schedule: Q01DX009 (ip), vehicle: saline",97 % of control
CCC1c2ccc3cc(O)ccc3c2CCC1(C)C(=O)OC (stereo unspecified),T/C,"endpoint: mean survival time, dose: 50.0 mg/kg/injection, schedule: Q01DX001 (ip), vehicle: Klucel (hydroxypropylcellulose) (HPC)",96 % of control
same,T/C,"endpoint: mean survival time, dose: 100.0 mg/kg/injection, schedule: Q01DX001 (ip), vehicle: Klucel (hydroxypropylcellulose) (HPC)",96 % of control
same,T/C,"endpoint: mean survival time, dose: 200.0 mg/kg/injection, schedule: Q01DX001 (ip), vehicle: Klucel (hydroxypropylcellulose) (HPC)",104 % of control
